Source: US11021444B2, “Antiviral compounds” (priority 2013, dated 2021)
Like-named read-outs stand apart in the source and are kept apart here.

Legend:
RSV replicon = assay: microbe, parasite or virus in culture; format: cell-based; settings: human respiratory syncytial virus, read-out: EC50, the concentration of the drug required for reducing RSV replicon RNA by 50%
Experimental: The Renilla Luciferase Assay System (Promega, Cat. #E2820) was used to measure anti-RSV replicon activity. […] Luminescence was recorded using a Perkin Elmer multilabel counter Victor3V. EC50, the concentration of the drug required for reducing RSV replicon RNA by 50% in relation to the untreated cell control value, was calculated from the plot of percentage reductions of the optical density (OD) value against the drug concentrations using the Microsoft Excel forecast function.

[1] = Cytotoxicity Determination (CCK-8, without addition of virus); format: cell-based; settings: human, 50% cytotoxicity concentration (CC50)
In short: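 HEp-2 cells were seeded at 1,500 cells/well one day before compound addition. Compounds were tested without virus in duplicate over 7 points from 100 μM in 1/2 steps, with 1% final DMSO, 5 days at 37 °C, 5% CO2. Viability was read by CCK-8 after 3-4 hours.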

[2] = test system: Respiratory Syncytial Virus (RSV) long strain; assay: microbe, parasite or virus in culture; format: cell-based; settings: human respiratory syncytial virus, Tables A and B list compounds by EC50 band
In short: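 HEp-2 cells infected with 100 TCID50 virus per well, compounds in duplicate, 9-point 1/3 dilutions from 100 μM or 1 μM, 1% DMSO. After 5 days at 37 °C, cell viability (CPE protection) read by CCK-8 absorbance at 450 nm, 630 nm background.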

recombinant RSV complex = recombinant RSV complex (Human respiratory syncytial virus A, UniProt P28887); assay: RSV Polymerase Inhibition Assay; format: biochemical
Chain of recombinant RSV complex (P28887 whole entry): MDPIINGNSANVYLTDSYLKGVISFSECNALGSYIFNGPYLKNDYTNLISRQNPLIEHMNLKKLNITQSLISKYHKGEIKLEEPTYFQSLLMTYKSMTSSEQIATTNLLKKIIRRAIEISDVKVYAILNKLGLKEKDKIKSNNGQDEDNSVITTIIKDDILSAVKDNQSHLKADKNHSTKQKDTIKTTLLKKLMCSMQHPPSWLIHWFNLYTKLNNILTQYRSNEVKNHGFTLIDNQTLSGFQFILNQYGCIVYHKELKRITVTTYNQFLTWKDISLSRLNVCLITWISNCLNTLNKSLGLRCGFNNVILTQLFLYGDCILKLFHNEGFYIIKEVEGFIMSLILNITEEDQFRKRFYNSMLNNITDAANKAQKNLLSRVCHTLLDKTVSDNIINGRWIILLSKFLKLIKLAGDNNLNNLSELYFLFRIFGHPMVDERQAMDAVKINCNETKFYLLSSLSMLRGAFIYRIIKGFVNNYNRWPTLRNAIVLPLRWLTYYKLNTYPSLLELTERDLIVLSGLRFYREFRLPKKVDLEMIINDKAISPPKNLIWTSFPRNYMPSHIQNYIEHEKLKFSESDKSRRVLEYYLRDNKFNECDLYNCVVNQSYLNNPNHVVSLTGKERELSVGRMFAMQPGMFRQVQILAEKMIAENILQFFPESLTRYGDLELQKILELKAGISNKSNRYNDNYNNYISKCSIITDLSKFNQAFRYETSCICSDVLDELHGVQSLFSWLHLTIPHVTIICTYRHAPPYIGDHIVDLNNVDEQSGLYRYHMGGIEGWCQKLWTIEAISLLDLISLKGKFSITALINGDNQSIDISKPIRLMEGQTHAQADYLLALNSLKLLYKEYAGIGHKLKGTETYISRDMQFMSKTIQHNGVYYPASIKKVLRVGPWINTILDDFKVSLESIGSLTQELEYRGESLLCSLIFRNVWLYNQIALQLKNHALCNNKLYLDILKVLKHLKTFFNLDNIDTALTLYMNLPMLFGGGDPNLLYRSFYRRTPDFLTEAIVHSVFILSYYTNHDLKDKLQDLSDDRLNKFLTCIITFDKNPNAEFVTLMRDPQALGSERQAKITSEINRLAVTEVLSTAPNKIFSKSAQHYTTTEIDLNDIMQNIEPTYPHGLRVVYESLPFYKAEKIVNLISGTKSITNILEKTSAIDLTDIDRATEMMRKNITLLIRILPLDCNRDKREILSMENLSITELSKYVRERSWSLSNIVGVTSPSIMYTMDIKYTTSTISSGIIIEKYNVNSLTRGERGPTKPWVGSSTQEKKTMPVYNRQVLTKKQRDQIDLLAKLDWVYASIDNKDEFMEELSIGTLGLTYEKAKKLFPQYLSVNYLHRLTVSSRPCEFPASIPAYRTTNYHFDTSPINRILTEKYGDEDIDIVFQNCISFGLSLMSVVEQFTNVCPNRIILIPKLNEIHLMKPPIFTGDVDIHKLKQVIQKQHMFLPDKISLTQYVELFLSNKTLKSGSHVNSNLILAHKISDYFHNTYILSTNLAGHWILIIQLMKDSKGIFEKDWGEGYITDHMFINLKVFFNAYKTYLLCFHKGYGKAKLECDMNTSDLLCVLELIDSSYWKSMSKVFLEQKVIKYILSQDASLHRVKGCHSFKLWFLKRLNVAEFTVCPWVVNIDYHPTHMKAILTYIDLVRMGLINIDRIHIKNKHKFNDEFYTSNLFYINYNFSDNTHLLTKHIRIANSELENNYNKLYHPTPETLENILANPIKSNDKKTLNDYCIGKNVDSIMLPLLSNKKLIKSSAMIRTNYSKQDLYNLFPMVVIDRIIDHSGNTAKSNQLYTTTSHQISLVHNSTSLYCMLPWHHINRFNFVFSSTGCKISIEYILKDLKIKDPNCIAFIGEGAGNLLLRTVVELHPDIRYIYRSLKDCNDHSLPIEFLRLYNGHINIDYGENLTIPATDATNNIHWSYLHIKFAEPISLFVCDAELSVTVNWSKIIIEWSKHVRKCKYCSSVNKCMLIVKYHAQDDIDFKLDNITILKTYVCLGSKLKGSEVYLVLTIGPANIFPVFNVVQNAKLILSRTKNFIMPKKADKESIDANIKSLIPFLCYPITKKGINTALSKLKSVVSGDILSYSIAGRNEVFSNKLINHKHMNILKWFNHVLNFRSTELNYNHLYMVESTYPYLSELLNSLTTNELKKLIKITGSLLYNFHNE
Chain of recombinant RSV complex (P03421 whole entry, further chain): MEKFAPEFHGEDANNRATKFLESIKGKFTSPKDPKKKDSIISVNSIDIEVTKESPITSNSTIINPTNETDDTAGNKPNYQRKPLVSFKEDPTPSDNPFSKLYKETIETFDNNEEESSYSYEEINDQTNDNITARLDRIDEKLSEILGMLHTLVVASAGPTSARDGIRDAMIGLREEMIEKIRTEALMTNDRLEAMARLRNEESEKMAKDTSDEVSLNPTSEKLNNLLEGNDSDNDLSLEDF
In short: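 10 nM recombinant RSV polymerase complex in Tris-HCl pH 7.5, 6 mM MgCl2 with RNA oligonucleotide template and radionucleotides, incubated 2 h at 30 °C with increasing inhibitor concentrations. Reaction stopped with EDTA; radiolabeled RNA product counted by scintillation.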

[3] = HEp-2, 120 h, read-out: 50% effective concentration (EC50), HEp-2 cells infected with RSV long strain, 5 days, CCK-8 readout
[4] = 120 h, read-out: 50% effective concentration (EC50), HEp-2 cells infected with RSV long strain, 5 days, CCK-8 readout

Row | Structure (SMILES) | EC50 (RSV replicon) | CC50 at 5 days [1] | EC50 [2, 3] | IC50 (recombinant RSV complex) | EC50 [2, 4]
1 | COc1cc(C(=O)NCC(O)(c2cc(C(C)(N)CF)cc(-c3ccc(F)cc3)n2)C(F)(F)F)ccc1OCCO (single isomer, unassigned) [Compound 664] | < 1000 nM | 10 to 100 µM | < 1000 nM | < 1000 nM | 
2 | CCc1ccc(C(C)(O)CNC(=O)c2ccc(OC)c(OC)c2)nc1-c1csc2c(F)cccc12 (centres unmarked) [Compound 115] | < 1000 nM | 10 to 100 µM | < 1000 nM | < 1000 nM | 
3 | COc1cc(C(=O)NCC(C)(O)c2ccc(OC)c(-c3ccc(F)c(Cl)c3)n2)ccc1OCCF (centres unmarked) [Compound 119] | < 1000 nM | 10 to 100 µM | < 1000 nM | < 1000 nM | 
4 | COc1cc(C(=O)NCC(O)(c2ccc(OC)c(-c3ccc(F)c(Cl)c3)n2)C2CC2)ccc1OCCF (centres unmarked) [Compound 123] | < 1000 nM | > 100 µM | < 1000 nM | < 1000 nM | 
5 | CC#CC(O)(CNC(=O)c1ccc(OCCF)c(OC)c1)c1ccc(OC)c(-c2ccc(F)c(Cl)c2)n1 (centres unmarked) [Compound 124] | < 1000 nM | 10 to 100 µM | < 1000 nM | < 10000 nM | 
6 | COc1cc(C(=O)NCC(O)(c2ccc(OC)c(-c3ccc(F)c(Cl)c3)n2)C(C)C)ccc1OCCF (centres unmarked) [Compound 125] | < 1000 nM | 10 to 100 µM | < 1000 nM | < 1000 nM | 
7 | C=CC(O)(CNC(=O)c1ccc(OCCF)c(OC)c1)c1ccc(OC)c(-c2ccc(F)c(Cl)c2)n1 (centres unmarked) [Compound 126] | < 1000 nM | 10 to 100 µM | < 1000 nM | < 1000 nM | 
8 | C#CC(O)(CNC(=O)c1ccc(OCCF)c(OC)c1)c1ccc(OC)c(-c2ccc(F)c(Cl)c2)n1 (centres unmarked) [Compound 127] | 1000 to 50000 nM | 10 to 100 µM | < 1000 nM | < 1000 nM | 
9 | COc1ccc(C(=O)NCC(=O)c2nc(-c3csc4c(F)cccc34)c3ccccn23)cc1OC [Compound 130] | < 1000 nM | 10 to 100 µM |  | < 1000 nM | < 1000 nM
10 | COc1cc(C(=O)NCC(=O)c2cc3c(c(-c4ccc(F)c(Cl)c4)n2)OCC3(C)C)ccc1OCCO [Compound 140] | < 1000 nM | 10 to 100 µM |  | < 1000 nM | < 1000 nM
11 | COc1cc(C(=O)NCC(C)(O)c2cccc(-c3csc4c(F)cccc34)n2)ccc1OCCO (centres unmarked) [Compound 143] | < 1000 nM | 10 to 100 µM | < 1000 nM | < 1000 nM | 
12 | COc1cc(C(=O)NCC(O)(CO)c2ccc(OC)c(-c3ccc(F)c(Cl)c3)n2)ccc1OCCO (centres unmarked) [Compound 176] | < 1000 nM | > 100 µM | < 1000 nM | < 1000 nM | 
13 | COc1cc(C(=O)NCC(O)(CNC2CC2)c2ccc(OC)c(-c3ccc(F)c(Cl)c3)n2)ccc1OCCO (centres unmarked) [Compound 189] | < 1000 nM | > 100 µM | < 1000 nM | < 1000 nM | 
14 | COc1cc(C(=O)NCC(O)(Cn2ccnc2)c2ccc(OC)c(-c3ccc(F)c(Cl)c3)n2)ccc1OCCO (centres unmarked) [Compound 191] | < 1000 nM | > 100 µM | < 1000 nM | < 1000 nM | 
15 | COc1cc(C(=O)NCC(O)(Cn2ccnn2)c2ccc(OC)c(-c3ccc(F)c(Cl)c3)n2)ccc1OCCO (centres unmarked) [Compound 192] | < 1000 nM | > 100 µM | < 1000 nM | < 1000 nM | 
16 | COc1cc(C(=O)NCC(O)(Cn2nccn2)c2ccc(OC)c(-c3ccc(F)c(Cl)c3)n2)ccc1OCCO (centres unmarked) [Compound 193] | < 1000 nM | 10 to 100 µM | < 1000 nM | < 1000 nM | 

Row | Structure (SMILES) | EC50 (RSV replicon) | CC50 at 5 days [1] | EC50 [2, 3] | IC50 (recombinant RSV complex) | EC50 [2, 4]
17 | COc1cc(C(=O)NCC(O)(Cn2cncn2)c2ccc(OC)c(-c3ccc(F)c(Cl)c3)n2)ccc1OCCO (centres unmarked) [Compound 194] | < 1000 nM | > 100 µM | < 1000 nM | < 1000 nM | 
18 | COc1cc(C(=O)NCC(O)(CNC(C)=O)c2ccc(OC)c(-c3ccc(F)c(Cl)c3)n2)ccc1OCCO (centres unmarked) [Compound 195] | < 1000 nM | > 100 µM | < 1000 nM | < 1000 nM | 
19 | COc1cc(C(=O)NCC(O)(c2cc3c(c(-c4ccc(F)c(Cl)c4)n2)OCC3(C)C)C(F)(F)F)ccc1OC1CCNC1=O (centres unmarked) [Compound 200] | < 1000 nM | 10 to 100 µM |  | < 1000 nM | < 1000 nM
20 | COc1cc(C(=O)NCC(O)(c2cc3c(c(-c4ccc(F)c(Cl)c4)n2)OCC3(C)C)C(F)(F)F)cc2cccnc12 (centres unmarked) [Compound 208] | < 1000 nM | 10 to 100 µM | < 1000 nM | < 1000 nM | 
21 | COc1cc(C(=O)NCC(O)(c2cc3c(c(-c4ccc(F)c(Cl)c4)n2)OCC3(C)C)C(F)(F)F)ccc1OC1CC1 (centres unmarked) [Compound 209] | < 1000 nM | > 100 µM | < 1000 nM | < 1000 nM | 
22 | COc1cc(C(=O)NCC(O)(c2cc3c(c(-c4ccc(F)c(Cl)c4)n2)OCC3(C)C)C(F)(F)F)ccc1OCC(C)O (centres unmarked) [Compound 211] | < 1000 nM | 10 to 100 µM | < 1000 nM | < 1000 nM | 
23 | COc1cc(C(=O)NCC(O)(Cn2cccn2)c2cc3c(c(-c4ccc(F)c(Cl)c4)n2)OCC3(C)C)ccc1OC1CCNC1=O (centres unmarked) [Compound 218] | < 1000 nM | 10 to 100 µM | < 1000 nM | < 1000 nM | 
24 | COc1cc(C(=O)NCC(=O)c2cc3c(c(-c4ccc(F)c(Cl)c4)n2)OCC3(C)C)cc2cccnc12 [Compound 220] | 1000 to 50000 nM | > 100 µM |  | < 1000 nM | < 1000 nM
25 | COc1cc(C(=O)NCC(O)(c2cc3c(c(-c4ccc(F)c(Cl)c4)n2)OCC3(C)C)C2CC2)ccc1OC1CCNC1=O (centres unmarked) [Compound 223] | < 1000 nM | 10 to 100 µM | < 1000 nM | < 1000 nM | 
26 | COc1cc(C(=O)NCC(O)(c2cc3c(c(-c4ccc(F)c(Cl)c4)n2)OCC3(C)C)C2CC2)cc2cccnc12 (centres unmarked) [Compound 224] | < 1000 nM | 10 to 100 µM | < 1000 nM | < 1000 nM | 
27 | COc1cc(C(=O)NCC(O)(Cn2ccnc2)c2cc3c(c(-c4ccc(F)c(Cl)c4)n2)OCC3(C)C)cc2cccnc12 (centres unmarked) [Compound 226] | < 1000 nM | 10 to 100 µM | < 1000 nM | < 1000 nM | 
28 | COc1cc(C(=O)NCC(C)(O)c2cc3c(c(-c4c[nH]c5c(F)cccc45)n2)OCC3(C)C)ccc1OCCF (centres unmarked) [Compound 228] | < 1000 nM | > 100 µM | < 1000 nM | < 1000 nM | 
29 | COc1ccc(C(O)(CNC(=O)c2ccc(OC[C@@H](C)O)c(Cl)c2)C(F)(F)F)nc1-c1ccc(F)c(Cl)c1 (some centres unmarked) [Compound 232] | < 1000 nM | 10 to 100 µM | < 1000 nM | < 1000 nM | 
30 | COc1ccc(C(O)(CNC(=O)c2ccc(OCC(N)=O)c(Cl)c2)C(F)(F)F)nc1-c1ccc(F)c(Cl)c1 (centres unmarked) [Compound 237] | < 1000 nM | 10 to 100 µM | < 1000 nM | < 1000 nM | 
31 | COc1cc(C(=O)NCC(O)(c2ccc(OC)c(-c3ccc(F)c(Cl)c3)n2)C(F)(F)F)ccc1OCC(N)=O (centres unmarked) [Compound 240] | < 1000 nM | 10 to 100 µM |  | < 1000 nM | < 1000 nM
32 | COc1cc(C(=O)NCC(O)(c2ccc(OC)c(-c3ccc(F)c(Cl)c3)n2)C2CC2)ccc1OCCO (centres unmarked) [Compound 241] | < 1000 nM | 10 to 100 µM | < 1000 nM | < 1000 nM | 
